Structures are written as SMILES.

The test system of experiment [1] is pulmonary fibrosis mice induced by bleomycin. Briefly: Activity of 8 alkaloids and pentoxyverine against pulmonary fibrosis in mice (Embodiment 3). It counts as in vivo, C57BL/6 mice. Particulars: intragastric from first day after model to 21th day; for pulmonary inflammation, injury and fibrosis in HE and Masson stained pathological sections: alkaloids and pentoxyverine 30 mg/kg (FIG. 1B, 1C). The procedure:
Female C57BL/6 mice (eight-week-old) are established for models after 7 days, the time is set for the mice to adapt to the environment. After fasts for overnight, the mice are anaesthetized by 3% chloral hydrate and fixed. Sterilize and incise neck skin longitudinally as little injury as possible. Split fascia and muscle with tweezers longitudinally and expose the windpipe. Then, about 35 μl (3.5 mg/kg) bleomycin are injected into windpipe with microinjector. Put the mice upright rapidly and rotate the mice for 3˜5 minutes, so that bleomycin is able to enter into the pulmones uniformly. Observe the breathing of mice. Sterilize neck injury with 75% alcohol tampon and stitch the wound, then 1 drop or 2 drops of benzylpenicillin injection is/are dripped into the suture. Put the mice back into dry and clean cages, and feed them normally after waking up. Operations are done on operating table at about […]. Physiological saline using in injection is injected into windpipe of sham operation group.
Experimental mice are randomly divided into 12 groups: 10 mice in model group, 10 mice in pentoxyverine group, and 5 mice in any other group. Group 1 is sham operation group, group 2 is model group, group 3 is pentoxyverine group, group 4 is positive drug pirfenidone group, groups 5-12 are compounds I-VIII administration group respectively. Models of groups 2-12 are established by using bleomycin with the same method used in embodiment 2. From the first day after successfully establishing model, 30 mg/kg pentoxyverine and 300 mg/kg pirfenidone are given to group 3 and group 4 by means of intragastric administration respectively. 30 mg/kg compounds I-VIII are given to groups 5-12 also by means of intragastric administration respectively. Besides, same doses of solvent are given to sham operation group and model group until the 21th day. After the last intragastric administration, the mice are killed to collect the lung tissue, and the right lobule is used for determining the content of hydroxyproline, while the left lobule is used for preparing pathological sections.

The test system of experiment [2] is cough of guinea pig induced by citric acid. Particulars: cited from earlier work.
The test system of the next experiment is cough reflex pathway. To be noted: in vivo; cited from earlier work.

`CCN(CC)CCOCCOC(=O)C1(c2ccccc2)CCCC1` [Pentoxyverine, pentoxyverine, reference compound]: the “pulmonary inflammation, injury and fibrosis in HE and Masson stained pathological sections” value in experiment [1] is “cannot decrease the degree of pulmonary injury and fibrosis”. The “content of hydroxyproline in lung tissue” value in experiment [1] (alkaloids and pentoxyverine 30 mg/kg, pirfenidone 300 mg/kg, versus model group (FIG. 1A)) is “no significant difference”.
Take `CC[C@@H]1[C@H]2CCCCN3[C@H]2[C@H](C[C@@H]3[C@@H]2C[C@H](C)C(=O)O2)[C@@H]2[C@H]1OC(=O)[C@H]2C` [Compound II, Tuberostemonine A]: in experiment [1], the “pulmonary inflammation, injury and fibrosis in HE and Masson stained pathological sections” value is on record as “recover to nearly normal structure”.
With `CC[C@@H]1[C@H]2CCCCN3CC[C@@H]([C@H]4[C@@H]1OC(=O)[C@H]4C)[C@@H]23` [isostenine, reference compound], in experiment [2], the antitussive effect entry is recorded as “very good antitussive effect”.
On to `CC[C@@H]1[C@H]2CCCCN3[C@@H]2[C@@H](C[C@H]3[C@@H]2C[C@H](C)C(=O)O2)[C@H]2[C@@H]1OC(=O)[C@H]2C` [Compound IV, Tuberostemonine H], for which, in experiment [2], the antitussive effect result is recorded as “very good antitussive effect” and the “antitussive effect compared with codein” value is on record as “weaker antitussive effect than that of codein”.
Turning to `CC[C@H]1[C@H]2[C@@H](CCCN3[C@H]2CC[C@H]3[C@@H]2C[C@H](C)C(=O)O2)O[C@]12C=C(C)C(=O)O2` [stemoninine, reference compound], the “antitussive activities, comparison among stemona tuberosa alkaloids” value in the experiment on cough reflex pathway was “similar”.
As to `CC[C@@H]1[C@@H]2CCCCN3[C@@H]2[C@@H](C[C@H]3[C@@H]2C[C@H](C)C(=O)O2)[C@H]2[C@@H]1OC(=O)[C@H]2C` [Compound III, Tuberostemonine J], the “pulmonary inflammation, injury and fibrosis in HE and Masson stained pathological sections” value in experiment [1] is “recover to nearly normal structure”. Further, in experiment [2], the antitussive effect entry is “very good antitussive effect” and the “antitussive effect compared with codein” value is given as “weaker antitussive effect than that of codein”.
With `C[C@@H]1C[C@]2(CCCCN3[C@H]2CC[C@H]3[C@@H]2C[C@H](C)C(=O)O2)OC1=O` [croomine, reference compound], in the experiment with cough reflex pathway, the “antitussive activities, comparison among stemona tuberosa alkaloids” value is “similar”.

(Values after patent publication US9943524B2, “Use of alkaloid in preparing pharmaceutical compositions for preventing or treating pulmonary fibrosis” (China Pharmaceutical University, priority 2014, dated 2018).)
